Results as given in PubChem BioAssay (NCI).
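The compound was tested at five concentrations on cells cultured in 96-well plates, with a 48-hour exposure period. TGI: concentration producing complete growth inhibition.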

Assays:
Assay in all cases: NCI-60 cell line screen, 48 h
[1] = test system: LXFL 529 NSCLC
[2] = test system: SN12C renal
[3] = test system: OVCAR-5 ovarian
[4] = test system: COLO 205 colon
[5] = test system: HOP-62 NSCLC
[6] = test system: KM12 colon
[7] = test system: U251 CNS
[8] = test system: MALME-3M melanoma
[9] = test system: HCT-15 colon
[10] = test system: SK-OV-3 ovarian
[11] = test system: IGROV1 ovarian
[12] = test system: KM20L2 colon
[13] = test system: SNB-19 CNS
[14] = test system: OVCAR-4 ovarian
[15] = test system: SW-620 colon
[16] = test system: SK-MEL-28 melanoma
[17] = test system: XF 498 CNS
[18] = test system: CAKI-1 renal
[19] = test system: A498 renal
[20] = test system: NCI-H522 lung
[21] = test system: M14 melanoma
[22] = test system: LOX IMVI melanoma
[23] = test system: SF-539 CNS
[24] = test system: OVCAR-8 ovarian
[25] = test system: ACHN renal
[26] = test system: MOLT-4 leukemia
[27] = test system: HCC-2998 colon
[28] = test system: OVCAR-3 ovarian
[29] = test system: SR leukemia
[30] = test system: A549 NSCLC
[31] = test system: UO-31 renal
[32] = test system: NCI-H23 lung
[33] = test system: TK-10 renal
[34] = test system: UACC-257 melanoma
[35] = test system: M19-MEL melanoma
[36] = test system: SF-295 CNS
[37] = test system: SK-MEL-5 melanoma
[38] = test system: CCRF-CEM leukemia
[39] = test system: NCI-H460 lung
[40] = test system: HCT-116 colon
[41] = test system: EKVX NSCLC
[42] = test system: SK-MEL-2 melanoma
[43] = test system: UACC-62 melanoma
[44] = test system: K-562 leukemia
[45] = test system: SNB-78 CNS
[46] = test system: HL-60(TB) leukemia
[47] = test system: NCI-H226 lung
[48] = test system: 786-0 renal
[49] = test system: HT29 colon
[50] = test system: RPMI-8226 leukemia
[51] = test system: DMS 114 small cell lung
[52] = test system: SF-268 CNS
[53] = test system: DMS 273 small cell lung
[54] = test system: RXF 393 renal
[55] = test system: SNB-75 CNS
[56] = test system: HOP-92 NSCLC
[57] = test system: HOP-18 NSCLC
[58] = test system: DLD-1 colon
[59] = test system: RXF-631 renal

## COC(=O)/C(=N/NC(C)(C)C)C(C(=O)OC)C(=O)C(=O)Nc1nc2ccc([N+](=O)[O-])cc2s1 (centres undefined)
[1]
  TGI: > 100 µM
[2]
  TGI: > 100 µM
[3]
  TGI: > 100 µM
[4]
  TGI: > 100 µM
[5]
  TGI: > 100 µM
[6]
  TGI: > 100 µM
[7]
  TGI: > 100 µM
[8]
  TGI: > 100 µM
[9]
  TGI: > 100 µM
[10]
  TGI: > 100 µM
[11]
  TGI: > 100 µM
[12]
  TGI: > 100 µM
[13]
  TGI: > 100 µM
[14]
  TGI: > 100 µM
[15]
  TGI: > 100 µM
[16]
  TGI: > 100 µM
[17]
  TGI: > 100 µM
[18]
  TGI: > 100 µM
[19]
  TGI: > 100 µM
[20]
  TGI: > 100 µM
[21]
  TGI: > 100 µM
[22]
  TGI: > 100 µM
[23]
  TGI: > 100 µM
[24]
  TGI: > 100 µM
[25]
  TGI: > 100 µM
[26]
  TGI: > 100 µM
[27]
  TGI: > 100 µM
[28]
  TGI: > 100 µM
[29]
  TGI: > 100 µM
[30]
  TGI: > 100 µM
[31]
  TGI: > 100 µM
[32]
  TGI: > 100 µM
[33]
  TGI: > 100 µM
[34]
  TGI: > 100 µM
[35]
  TGI: > 100 µM
[36]
  TGI: > 100 µM
[37]
  TGI: > 100 µM
[38]
  TGI: > 100 µM
[39]
  TGI: > 100 µM
[40]
  TGI: > 100 µM
[41]
  TGI: > 100 µM
[42]
  TGI: > 100 µM
[43]
  TGI: > 100 µM
[44]
  TGI: > 100 µM
[45]
  TGI: > 100 µM
[46]
  TGI: > 100 µM
[47]
  TGI: > 100 µM
[48]
  TGI: > 100 µM
[49]
  TGI: > 100 µM
[50]
  TGI: > 100 µM
[51]
  TGI: > 100 µM
[52]
  TGI: > 100 µM

## CCOC(=O)c1c2ccc(/C=C/c3ccccc3)ccc-2c(C(=O)OCC)c1N
[1]
  TGI: > 100 µM
[53]
  TGI: > 100 µM
[3]
  TGI: > 100 µM
[54]
  TGI: > 100 µM
[4]
  TGI: > 100 µM
[6]
  TGI: > 100 µM
[8]
  TGI: > 100 µM
[9]
  TGI: > 100 µM
[10]
  TGI: > 100 µM
[11]
  TGI: > 100 µM
[12]
  TGI: > 100 µM
[13]
  TGI: > 100 µM
[14]
  TGI: > 100 µM
[15]
  TGI: > 100 µM
[55]
  TGI: 99.4 µM
[16]
  TGI: > 100 µM
[18]
  TGI: > 100 µM
[19]
  TGI: 99.8 µM
[20]
  TGI: > 100 µM
[21]
  TGI: > 100 µM
[22]
  TGI: > 100 µM
[23]
  TGI: > 100 µM
[25]
  TGI: > 100 µM
[26]
  TGI: > 100 µM
[27]
  TGI: > 100 µM
[28]
  TGI: > 100 µM
[29]
  TGI: > 100 µM
[30]
  TGI: > 100 µM
[31]
  TGI: > 100 µM
[32]
  TGI: > 100 µM
[33]
  TGI: > 100 µM
[34]
  TGI: > 100 µM
[56]
  TGI: > 100 µM
[35]
  TGI: > 100 µM
[36]
  TGI: > 100 µM
[37]
  TGI: > 100 µM
[38]
  TGI: > 100 µM
[39]
  TGI: > 100 µM
[40]
  TGI: > 100 µM
[41]
  TGI: > 100 µM
[42]
  TGI: > 100 µM
[43]
  TGI: > 100 µM
[44]
  TGI: > 100 µM
[57]
  TGI: > 100 µM
[58]
  TGI: > 100 µM
[46]
  TGI: > 100 µM
[47]
  TGI: > 100 µM
[48]
  TGI: > 100 µM
[49]
  TGI: > 100 µM
[51]
  TGI: > 100 µM
[52]
  TGI: > 100 µM
[59]
  TGI: > 100 µM
